From ChEMBL document CHEMBL5303765, “Data for DCP probe BAY-7081” (2023)
pKi: −log10 of the molar value.

Legend:
[1] = target: Leukotriene C4 synthase (Cavia porcellus) (UniProt A6XA80); assay: Leukotriene LTC4 Synthase Eurofins Panlabs panel; conditions: Compound concentration 10.0 uM
[2] = target: Phosphodiesterase 3 (Homo sapiens) (UniProt Q14432+Q13370); assay: Phosphodiesterase PDE3 Eurofins Panlabs panel; assay type: protein assay; conditions: Compound concentration 10.0 uM
[3] = target: Adenosine receptor A1 (Homo sapiens) (UniProt P30542); assay: Adenosine A1 Eurofins Panlabs panel; conditions: Compound concentration 10.0 uM
[4] = target: D(1A) dopamine receptor (Homo sapiens) (UniProt P21728); assay: Dopamine D1 Eurofins Panlabs panel; conditions: Compound concentration 10.0 uM
[5] = target: Endothelin-1 receptor (Homo sapiens) (UniProt P25101); assay: Endothelin ETA Eurofins Panlabs panel; conditions: Compound concentration 10.0 uM
[6] = target: GABA-A receptor; anion channel (Rattus norvegicus) (UniProt O09028+P15431+P18506+P18508+P19969+P20236+P23574+P23576+P28471+P28473+P30191+P62813+P63079+P63138+Q91ZM7+Q9ES14); assay: GABAA, Flunitrazepam, Central Eurofins Panlabs panel; assay type: protein-complex assay; conditions: Compound concentration 10.0 uM
[7] = target: GABA B receptor (Rattus norvegicus) (UniProt Q9Z0U4+O88871); assay: GABAB, Non-Selective Eurofins Panlabs panel; assay type: protein-complex assay; conditions: Compound concentration 10.0 uM
[8] = target: Histamine H2 receptor (Homo sapiens) (UniProt P25021); assay: Histamine H2 Eurofins Panlabs panel; conditions: Compound concentration 10.0 uM
[9] = target: T1, Muscarinic acetylcholine receptor M2 (Homo sapiens) (UniProt P08172); assay: Muscarinic M2 Eurofins Panlabs panel; conditions: Compound concentration 10.0 uM
T1 sequence (whole entry): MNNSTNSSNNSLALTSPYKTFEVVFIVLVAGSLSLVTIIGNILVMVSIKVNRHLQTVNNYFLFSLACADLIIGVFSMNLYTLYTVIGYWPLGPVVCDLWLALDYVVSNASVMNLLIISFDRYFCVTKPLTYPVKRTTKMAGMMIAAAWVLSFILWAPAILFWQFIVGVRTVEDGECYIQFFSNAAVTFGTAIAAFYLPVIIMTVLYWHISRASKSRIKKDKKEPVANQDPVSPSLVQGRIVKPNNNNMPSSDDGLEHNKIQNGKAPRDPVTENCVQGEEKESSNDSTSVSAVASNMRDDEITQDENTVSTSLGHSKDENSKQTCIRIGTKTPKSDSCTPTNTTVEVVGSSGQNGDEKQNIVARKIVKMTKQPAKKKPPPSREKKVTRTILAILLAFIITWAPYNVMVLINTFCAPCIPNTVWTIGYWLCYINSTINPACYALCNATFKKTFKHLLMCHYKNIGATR

[10] = target: Nicotinic Acetylcholine Receptor (Homo sapiens) (UniProt P02708+P07510+P11230+P17787+P30926+P32297+P43681+Q07001+Q15822+Q9UGM1+Q15825+P30532+Q04844+P36544+Q9GZZ6+Q05901); assay: Nicotinic Acetylcholine Eurofins Panlabs panel; assay type: protein-complex assay; conditions: Compound concentration 10.0 uM
[11] = target: Voltage-gated sodium channel, site 2 (Rattus norvegicus, UniProt F1LQQ7+O08562+O88420+O88457+P04774+P04775+P08104+P15389+P15390+Q62968); assay: Sodium Channel, Site 2 Eurofins Panlabs panel; assay type: protein assay; conditions: compound concentration 10 uM
[12] = target: Mu-type opioid receptor (Homo sapiens, UniProt P35372); assay: GPCRScan assay: inhibition of MOR; set-up: radioligand conc. used [nm] 1.0 – 2.0, parental cells stable HEK
[13] = target: cGMP-dependent 3',5'-cyclic phosphodiesterase (Homo sapiens, UniProt O00408); assay: Panlabs assay PDE2A; set-up: compound concentration 10 uM; conditions: at 10 µM
[14] = target: 3',5'-cyclic-AMP phosphodiesterase 4D (Homo sapiens) (UniProt Q08499); assay: Panlabs assay PDE4D2; set-up: compound concentration 10 uM; conditions: at 10 µM
Sequence of 3',5'-cyclic-AMP phosphodiesterase 4D (Homo sapiens) (Q08499 whole entry): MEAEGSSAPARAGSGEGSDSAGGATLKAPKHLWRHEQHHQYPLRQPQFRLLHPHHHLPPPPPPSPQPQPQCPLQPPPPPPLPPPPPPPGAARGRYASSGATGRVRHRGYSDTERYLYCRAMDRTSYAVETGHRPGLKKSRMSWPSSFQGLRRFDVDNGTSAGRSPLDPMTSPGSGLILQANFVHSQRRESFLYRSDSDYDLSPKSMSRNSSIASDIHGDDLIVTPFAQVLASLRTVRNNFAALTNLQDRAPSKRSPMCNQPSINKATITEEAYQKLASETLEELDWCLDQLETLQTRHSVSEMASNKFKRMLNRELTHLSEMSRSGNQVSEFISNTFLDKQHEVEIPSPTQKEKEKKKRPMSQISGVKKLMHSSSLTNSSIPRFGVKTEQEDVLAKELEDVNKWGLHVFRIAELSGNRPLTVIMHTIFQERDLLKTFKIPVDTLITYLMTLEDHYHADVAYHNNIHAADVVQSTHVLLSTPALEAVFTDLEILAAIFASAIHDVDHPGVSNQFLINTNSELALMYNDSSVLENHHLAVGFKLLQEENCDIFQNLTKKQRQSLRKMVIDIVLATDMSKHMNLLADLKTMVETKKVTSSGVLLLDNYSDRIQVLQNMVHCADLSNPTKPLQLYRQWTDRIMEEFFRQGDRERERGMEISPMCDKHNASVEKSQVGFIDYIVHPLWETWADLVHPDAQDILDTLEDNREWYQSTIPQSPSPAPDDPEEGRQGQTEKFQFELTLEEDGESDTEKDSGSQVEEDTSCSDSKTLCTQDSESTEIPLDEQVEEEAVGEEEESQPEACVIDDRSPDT

Sequence of Mu-type opioid receptor (P35372 whole entry): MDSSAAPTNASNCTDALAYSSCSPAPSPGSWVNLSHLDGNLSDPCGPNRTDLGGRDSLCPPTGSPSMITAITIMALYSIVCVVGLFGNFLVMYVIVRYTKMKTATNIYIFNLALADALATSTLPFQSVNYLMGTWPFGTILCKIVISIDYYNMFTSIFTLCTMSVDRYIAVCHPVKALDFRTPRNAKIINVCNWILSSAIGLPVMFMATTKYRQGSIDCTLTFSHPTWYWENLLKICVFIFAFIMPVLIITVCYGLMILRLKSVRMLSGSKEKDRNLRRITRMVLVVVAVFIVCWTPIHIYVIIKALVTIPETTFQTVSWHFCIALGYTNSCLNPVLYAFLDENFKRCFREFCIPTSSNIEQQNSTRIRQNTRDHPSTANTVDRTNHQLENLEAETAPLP
Sequence of Histamine H2 receptor (Homo sapiens) (P25021 whole entry): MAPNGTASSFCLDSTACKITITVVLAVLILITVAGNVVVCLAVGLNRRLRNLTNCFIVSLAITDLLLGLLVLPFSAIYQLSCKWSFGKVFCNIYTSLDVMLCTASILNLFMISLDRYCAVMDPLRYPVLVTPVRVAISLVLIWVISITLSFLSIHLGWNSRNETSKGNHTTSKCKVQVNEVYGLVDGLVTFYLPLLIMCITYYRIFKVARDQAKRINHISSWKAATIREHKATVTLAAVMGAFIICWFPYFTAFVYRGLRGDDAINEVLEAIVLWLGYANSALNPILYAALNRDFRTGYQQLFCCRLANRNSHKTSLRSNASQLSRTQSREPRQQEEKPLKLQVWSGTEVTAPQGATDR
Sequence of Adenosine receptor A1 (Homo sapiens) (P30542 whole entry): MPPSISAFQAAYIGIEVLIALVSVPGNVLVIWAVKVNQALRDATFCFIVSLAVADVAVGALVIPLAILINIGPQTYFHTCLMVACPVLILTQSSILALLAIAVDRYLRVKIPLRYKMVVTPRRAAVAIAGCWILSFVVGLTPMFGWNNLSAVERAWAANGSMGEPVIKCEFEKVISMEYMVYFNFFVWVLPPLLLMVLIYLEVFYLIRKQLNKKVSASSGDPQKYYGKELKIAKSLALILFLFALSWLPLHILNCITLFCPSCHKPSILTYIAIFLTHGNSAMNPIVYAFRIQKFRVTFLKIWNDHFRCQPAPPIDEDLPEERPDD
Sequence of Leukotriene C4 synthase (Cavia porcellus) (A6XA80 whole entry): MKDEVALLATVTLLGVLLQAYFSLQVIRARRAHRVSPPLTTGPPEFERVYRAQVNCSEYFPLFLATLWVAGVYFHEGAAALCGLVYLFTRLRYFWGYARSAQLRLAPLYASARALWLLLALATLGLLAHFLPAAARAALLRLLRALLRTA
Sequence of D(1A) dopamine receptor (Homo sapiens) (P21728 whole entry): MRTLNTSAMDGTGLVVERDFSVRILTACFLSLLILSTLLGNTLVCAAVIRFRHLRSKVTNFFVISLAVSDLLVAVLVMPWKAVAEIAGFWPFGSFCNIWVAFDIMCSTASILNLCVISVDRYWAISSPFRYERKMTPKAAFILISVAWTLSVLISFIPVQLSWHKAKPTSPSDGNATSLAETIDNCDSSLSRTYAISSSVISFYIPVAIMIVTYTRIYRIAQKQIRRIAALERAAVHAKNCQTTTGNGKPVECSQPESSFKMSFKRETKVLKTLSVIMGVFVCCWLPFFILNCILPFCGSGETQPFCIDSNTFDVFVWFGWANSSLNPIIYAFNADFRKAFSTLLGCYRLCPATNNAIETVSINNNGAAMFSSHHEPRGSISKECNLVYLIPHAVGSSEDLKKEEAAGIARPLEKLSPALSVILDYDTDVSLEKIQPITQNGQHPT
Sequence of Endothelin-1 receptor (Homo sapiens) (P25101 whole entry): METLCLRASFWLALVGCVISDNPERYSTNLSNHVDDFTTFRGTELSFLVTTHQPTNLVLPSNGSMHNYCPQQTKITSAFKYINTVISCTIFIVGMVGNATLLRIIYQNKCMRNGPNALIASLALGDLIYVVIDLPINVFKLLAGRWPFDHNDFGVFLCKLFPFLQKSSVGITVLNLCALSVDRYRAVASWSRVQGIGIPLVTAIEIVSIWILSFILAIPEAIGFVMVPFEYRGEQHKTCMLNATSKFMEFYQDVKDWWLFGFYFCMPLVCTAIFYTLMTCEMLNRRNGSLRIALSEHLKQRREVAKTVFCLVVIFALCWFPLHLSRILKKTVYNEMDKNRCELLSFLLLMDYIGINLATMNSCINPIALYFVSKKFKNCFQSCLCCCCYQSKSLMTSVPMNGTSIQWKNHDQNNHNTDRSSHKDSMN
Sequence of cGMP-dependent 3',5'-cyclic phosphodiesterase (O00408 whole entry): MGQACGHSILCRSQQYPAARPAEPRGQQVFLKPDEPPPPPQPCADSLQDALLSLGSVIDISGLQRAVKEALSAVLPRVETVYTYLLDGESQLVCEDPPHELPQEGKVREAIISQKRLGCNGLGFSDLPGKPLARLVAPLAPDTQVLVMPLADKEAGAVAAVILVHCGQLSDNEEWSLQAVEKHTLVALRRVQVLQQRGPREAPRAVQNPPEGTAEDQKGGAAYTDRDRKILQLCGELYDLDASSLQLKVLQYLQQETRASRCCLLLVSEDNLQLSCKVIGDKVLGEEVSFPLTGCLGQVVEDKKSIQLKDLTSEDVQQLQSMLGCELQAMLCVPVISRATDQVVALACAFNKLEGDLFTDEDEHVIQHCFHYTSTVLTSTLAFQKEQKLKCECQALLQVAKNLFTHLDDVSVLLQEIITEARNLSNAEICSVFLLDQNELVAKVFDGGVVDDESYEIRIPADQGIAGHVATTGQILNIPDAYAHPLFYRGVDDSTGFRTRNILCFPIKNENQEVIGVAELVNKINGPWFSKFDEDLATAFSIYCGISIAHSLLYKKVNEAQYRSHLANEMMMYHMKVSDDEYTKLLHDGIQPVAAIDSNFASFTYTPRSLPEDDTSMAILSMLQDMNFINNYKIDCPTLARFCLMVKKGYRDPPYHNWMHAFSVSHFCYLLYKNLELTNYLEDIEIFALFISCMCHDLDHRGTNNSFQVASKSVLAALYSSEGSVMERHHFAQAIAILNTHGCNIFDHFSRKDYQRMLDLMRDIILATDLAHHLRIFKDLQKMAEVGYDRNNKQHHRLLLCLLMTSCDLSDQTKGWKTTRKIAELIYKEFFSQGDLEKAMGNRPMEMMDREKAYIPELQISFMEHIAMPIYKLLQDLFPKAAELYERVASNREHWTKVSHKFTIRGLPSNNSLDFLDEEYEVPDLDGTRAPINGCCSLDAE

SMILES	inhibition [1] [%]	inhibition [2] [%]	inhibition [3] [%]	inhibition [4] [%]	inhibition [5] [%]	inhibition [6] [%]	inhibition [7] [%]	inhibition [8] [%]	inhibition [9] [%]	inhibition [10] [%]	inhibition at 10 µM [11] [%]	pKi ([12]; read-out: Ki)	Ki ([12]; read-out: pKi (converted)) [µM]	inhibition [13] [%]	inhibition [14] [%]
CCC[C@H]1CNCc2c1[nH]c(=O)c(C#N)c2N1CCC2(CC1)CC2	16	-1.5	16	1	3	16.5	-1	3	6.67	5	-4	–	–	–	–
CCC[C@@H]1CNCc2c1[nH]c(=O)c(C#N)c2N1CCC2(CC1)CC2	–	–	–	–	–	–	–	–	–	–	–	5.33	4.68	3.5	19.1
